# Measurements: US10471139B2, “Toll-like receptor agonists” (The University of Kansas, priority 2013, dated 2019)
# Like-named read-outs stand apart in the source and are kept apart here.
# How the values were obtained:
# [1] = target: T1, human TLR7 (Homo sapiens, UniProt Q9NYK1); test: Human TLR7 reporter gene assay (NF-κB induction), HEK-Blue-7 cells; format: cell-based
# T1 construct: expressed in transfected cells; host or cells: HEK293 (HEK-Blue-7)
# T1 sequence (Q9NYK1 27-1049): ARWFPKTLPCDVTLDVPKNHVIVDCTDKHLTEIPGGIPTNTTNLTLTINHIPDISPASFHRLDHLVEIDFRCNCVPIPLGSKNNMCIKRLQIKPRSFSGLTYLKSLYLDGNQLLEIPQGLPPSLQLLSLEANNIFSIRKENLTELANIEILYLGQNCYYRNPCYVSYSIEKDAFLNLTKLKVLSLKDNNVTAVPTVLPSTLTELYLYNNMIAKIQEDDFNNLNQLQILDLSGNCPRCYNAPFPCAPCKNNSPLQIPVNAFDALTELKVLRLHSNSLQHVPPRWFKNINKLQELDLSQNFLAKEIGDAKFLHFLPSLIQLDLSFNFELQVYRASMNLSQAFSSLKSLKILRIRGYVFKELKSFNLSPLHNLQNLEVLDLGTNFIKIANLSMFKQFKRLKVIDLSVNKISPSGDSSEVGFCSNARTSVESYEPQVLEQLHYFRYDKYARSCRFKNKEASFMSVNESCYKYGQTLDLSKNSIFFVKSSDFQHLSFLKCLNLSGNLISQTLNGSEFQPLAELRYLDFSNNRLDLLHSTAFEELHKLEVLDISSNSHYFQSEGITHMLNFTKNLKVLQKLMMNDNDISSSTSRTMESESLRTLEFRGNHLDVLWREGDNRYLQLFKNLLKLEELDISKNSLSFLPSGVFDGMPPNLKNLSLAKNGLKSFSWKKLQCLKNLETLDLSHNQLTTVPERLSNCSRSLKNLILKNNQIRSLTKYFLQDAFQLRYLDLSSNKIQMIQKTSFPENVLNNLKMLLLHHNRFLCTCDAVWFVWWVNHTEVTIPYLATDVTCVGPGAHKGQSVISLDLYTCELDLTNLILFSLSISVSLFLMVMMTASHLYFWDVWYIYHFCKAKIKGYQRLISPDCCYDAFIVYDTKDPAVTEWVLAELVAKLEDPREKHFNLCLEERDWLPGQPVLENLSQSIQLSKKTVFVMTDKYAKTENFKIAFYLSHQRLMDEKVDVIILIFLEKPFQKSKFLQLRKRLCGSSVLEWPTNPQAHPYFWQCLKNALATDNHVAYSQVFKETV
# Description: (§1) Human TLR-7/-8 Reporter Gene Assays (NF-κB Induction).
# (§2) The induction of NF-κB was quantified using HEK-Blue-7 (hTLR7-specific) and HEK-Blue-8 (hTLR8-specific) cells. HEK293 cells stably co-transfected with human TLR7 or human TLR8, MD2, and secreted alkaline phosphatase (sAP), were maintained in HEK-Blue™ Selection medium containing zeocin and normocin. Stable expression of secreted alkaline phosphatase (sAP) under control of NF-κB/AP-1 promoters is inducible by appropriate TLR agonists, and extracellular sAP in the supernatant is proportional to NF-κB induction.
# (§3) HEK293 cells stably co-transfected with the appropriate hTLR (or NOD) and secreted alkaline phosphatase (sAP) were maintained in HEK-Blue™ Selection medium. Stable expression of secreted alkaline phosphatase (sAP) under control of NF-κB/AP-1 promoters is inducible by appropriate TLR/NOD agonists, and extracellular sAP in the supernatant is proportional to NF-κB induction.
# [2] = target: T2, human TLR8 (Homo sapiens, UniProt Q9NR97); test: Human TLR8 reporter gene assay (NF-κB induction), HEK-Blue-8 cells; format: cell-based
# T2 construct: expressed in transfected cells; host or cells: HEK293 (HEK-Blue-8)
# T2 sequence (Q9NR97 27-1041): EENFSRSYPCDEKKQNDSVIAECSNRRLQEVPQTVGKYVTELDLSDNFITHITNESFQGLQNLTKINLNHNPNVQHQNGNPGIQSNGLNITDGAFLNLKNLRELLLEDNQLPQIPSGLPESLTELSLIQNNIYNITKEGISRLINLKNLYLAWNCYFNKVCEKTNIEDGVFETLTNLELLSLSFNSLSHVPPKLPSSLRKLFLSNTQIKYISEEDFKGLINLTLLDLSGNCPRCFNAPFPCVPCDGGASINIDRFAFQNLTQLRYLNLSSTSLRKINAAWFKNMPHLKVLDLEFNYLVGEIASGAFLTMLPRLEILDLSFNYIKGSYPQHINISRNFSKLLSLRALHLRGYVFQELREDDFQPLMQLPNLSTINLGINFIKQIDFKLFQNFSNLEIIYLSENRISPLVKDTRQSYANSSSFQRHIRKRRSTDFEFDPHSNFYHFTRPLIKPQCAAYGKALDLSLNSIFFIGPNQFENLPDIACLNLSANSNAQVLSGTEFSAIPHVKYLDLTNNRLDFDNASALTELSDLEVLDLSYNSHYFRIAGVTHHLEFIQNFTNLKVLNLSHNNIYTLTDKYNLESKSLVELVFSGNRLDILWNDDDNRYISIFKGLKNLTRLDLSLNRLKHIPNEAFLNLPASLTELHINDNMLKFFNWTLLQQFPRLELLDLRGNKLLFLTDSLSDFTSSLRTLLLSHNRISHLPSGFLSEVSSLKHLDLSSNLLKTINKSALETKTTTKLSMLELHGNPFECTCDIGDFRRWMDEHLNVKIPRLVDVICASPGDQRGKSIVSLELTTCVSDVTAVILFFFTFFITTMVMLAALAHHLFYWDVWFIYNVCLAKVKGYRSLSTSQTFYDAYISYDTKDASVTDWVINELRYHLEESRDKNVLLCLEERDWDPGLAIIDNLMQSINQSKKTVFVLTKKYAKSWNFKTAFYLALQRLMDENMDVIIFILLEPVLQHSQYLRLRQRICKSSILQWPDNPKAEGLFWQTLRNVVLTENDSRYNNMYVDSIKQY
# Description: as §1, §2, §3
# [3] = test system: human PBMCs; test: IFN-α induction in human PBMCs (ELISA); format: cell-based; details: PBMC
# Description: (§4) Fresh human peripheral blood mononuclear cells (hPBMC) were isolated from human blood obtained by venipuncture with informed consent and as per institutional guidelines on Ficoll-Hypaque gradients as described elsewhere. Aliquots of PBMCs (10^5 cells in 100 μL/well) were stimulated for 12 h with graded concentrations of test compounds. Supernatants were isolated by centrifugation, and were assayed in triplicates using either high-sensitivity multi-subtype IFN-α ELISA kits (PBL Interferon Source, Piscataway, N.J. and R&D Systems, Inc., Minneapolis, Minn.), or analyte-specific multiplexed cytokine/chemokine bead array assays as reported by us previously.
# [4] = test system: human natural killer (NK), cytokine-induced killer (CIK) and nominal B lymphocytes; test: Flow-cytometric CD69 upregulation in lymphocytic subsets of whole human blood; format: cell-based
# Description: Flow-Cytometric Immunostimulation Experiments.
# CD69 upregulation was determined by flow cytometry and modified for rapid-throughput. Briefly, heparin-anticoagulated whole blood samples were obtained by venipuncture from healthy human volunteers with informed consent and as per guidelines approved by the University of Kansas Human Subjects Experimentation Committee. Serial dilutions of selected imidazopyridine compounds (and imiquimod, used as a reference compound) were performed using a Bio-Tek Precision 2000 XS liquid handler in sterile 96-well polypropylene plates, to which were added 100 μL aliquots of anticoagulated whole human blood. The plates were incubated at 37° C. for 16.5 h. Negative (endotoxin free water) controls were included in each experiment. Following incubation, fluorochrome-conjugated antibodies (CD3-PE, CD56-APC, CD69-PE-Cy7, 10 μL of each antibody, Becton-Dickinson Biosciences, San Jose, Calif.) were added to each well with a liquid handler, and incubated at 37° C. in the dark for 30 min. […] CD69 activation in the major lymphocytic populations, viz., natural killer lymphocytes (NK cells: CD3^−CD56^+), cytokine-induced killer phenotype (CIK cells: CD3^+CD56^+), nominal B lymphocytes (CD3^−CD56^−), and nominal T lymphocytes (CD3^+CD56^−) were quantified using FlowJo v 7.0 software (Treestar, Ashland, Oreg.). […]
# [5] = Metabolic stability in human foreskin fibroblasts (microdialysis, LC-MS/MS); format: in vitro ADME; details: human, human foreskin fibroblasts (HFFs)
# [6] = test system: human foreskin fibroblasts (HFFs); test: as above; format: in vitro ADME
# [7] = Metabolic stability in peripheral blood mononuclear cells (microdialysis, LC-MS/MS); format: in vitro ADME, human; details: human, peripheral blood mononuclear cells (PBMCs)
# [8] = test system: peripheral blood mononuclear cells (PBMCs); test: as above; format: in vitro ADME, human; details: PBMCs
# [9] = Chemical stability of the free base (autoxidation); format: physicochemical; details: rapid formation of 3-ol A5 by autoxidation
# Description: A ring-contracted 2-amino-3-alkylindole analogue compound A4, accessed via sequential C-alkylation of commercially available 2-nitrophenylacetonitrile, reduction of the 2-nitro group, and Brønsted acid-promoted, microwave-assisted intramolecular cyclization (Scheme A1).
# [10] = test system: human PBMCs; test: Proinflammatory cytokine induction in human PBMCs / human blood (bead array); format: cell-based; details: human PBMCs and whole human blood
# Description: Immunoassays for Interferon (IFN)-α, and Cytokines.
# as §4
# [11] = human TLR7-specific reporter gene assay, Inactive = no activity up to 500 μg/mL, read-out: hTLR7-agonistic Activity (EC50)
# [12] = human TLR7-specific reporter gene assay, Inactive = no activity up to 500 μg/mL
structure (smiles),measurement,setting,value
"CCCCc1nc2c(N)nccc2n1Cc1ccccc1 [Compound 5, 1-Benzyl-2-butyl-1H-imidazo[4,5-c]pyridin-4-amine]",EC50,"[1]; primary screen, read-out: TLR7-specific agonistic activity EC50",1570 nM
same,TLR8 activity,[2]; TLR7 series,negligible
"CCCCc1nc2c(N)nc(NCc3ccco3)cc2n1Cc1ccccc1 [Compound 19k, 1-Benzyl-2-butyl-N^6-(furan-2-ylmethyl)-1H-imidazo[4,5-c]pyridine-4,6-diamine]",TLR7-agonistic potency relative to compound 5,[1]; fold over compound 5,approximately twenty-fold
same,EC50,[1]; [11],75 nM
same,EC50,[3],700 nM
"CCCCc1nc2c(N)nc(NCc3ccc(CN)cc3)cc2n1Cc1ccccc1 [Compound 19p, N^6-(4-(aminomethyl)benzyl)-1-benzyl-2-butyl-1H-imidazo[4,5-c]pyridine-4,6-diamine]",EC50,[3],300 nM
same,"CD69 expression in natural killer, cytokine-induced killer and B lymphocytic subsets",[4],as active as the reference TLR7 agonist IMDQ
same,half-life,[5],< 1 h
same,number of major metabolites identified by LC-MS/MS,"[6]; FIG. 5B, Table A, cell type not stated",6
same,parent detected by LC-MS,"[6]; HFFs, at 1 hour",nearly undetectable
same,half-life,[7],3 h
same,time by which parent was depleted,[8],≤ 8 h
"CCCCc1nc2c(N)nc(NCc3cccc(CNc4cc5c(nc(CCCC)n5Cc5ccccc5)c(N)n4)c3)cc2n1Cc1ccccc1 [Compound 19s, N^6,N^6′-(1,3-phenylenebis(methylene))bis(1-benzyl-2-butyl-1H-imidazo[4,5-c]pyridine-4,6-diamine)]",hTLR7-agonistic Activity (EC50),[1]; [12],Inactive
"CCCCc1cc2c(nc(CCCC)n2Cc2ccccc2)c(N)n1 [Compound 23a, 1-Benzyl-2,6-dibutyl-1H-imidazo[4,5-c]pyridin-4-amine]",EC50,[1]; [11],280 nM
"CCCCc1nc2c(N)nc(-c3ccccc3)cc2n1Cc1ccccc1 [Compound 23b, 1-Benzyl-2-butyl-6-phenyl-1H-imidazo[4,5-c]pyridin-4-amine]",hTLR7-agonistic Activity (EC50),[1]; [12],Inactive
"CCCCc1nc2c(N)nc(-c3ccc(C(N)=O)cc3)cc2n1Cc1ccccc1 [Compound 23c, 4-(4-Amino-1-benzyl-2-butyl-1H-imidazo[4,5-c]pyridin-6-yl)benzamide]",hTLR7-agonistic Activity (EC50),[1]; [12],Inactive
"CCCCc1nc2c(N)nc(-c3cccnc3)cc2n1Cc1ccccc1 [Compound 23d, 1-Benzyl-2-butyl-6-(pyridin-3-yl)-1H-imidazo[4,5-c]pyridin-4-amine]",hTLR7-agonistic Activity (EC50),[1]; [12],Inactive
"CCCCc1nc2c(N)nc(-c3ccoc3)cc2n1Cc1ccccc1 [Compound 23e, 1-Benzyl-2-butyl-6-(furan-3-yl)-1H-imidazo[4,5-c]pyridin-4-amine]",hTLR7-agonistic Activity (EC50),[1]; [12],Inactive
"CCCCc1nc2c(N)nc(-c3ccsc3)cc2n1Cc1ccccc1 [Compound 23f, 1-Benzyl-2-butyl-6-(thiophen-3-yl)-1H-imidazo[4,5-c]pyridin-4-amine]",hTLR7-agonistic Activity (EC50),[1]; [12],Inactive
"CCCCc1nc2c(N)nc(Cc3ccccc3)cc2n1Cc1ccccc1 [Compound 23g, 1,6-Dibenzyl-2-butyl-1H-imidazo[4,5-c]pyridin-4-amine]",EC50,[1]; [11],280 nM
same,TLR7-specific agonistic activity EC50,[1]; primary screen,restored
"CCCCc1nc2c(N)nc(Cc3ccc(C)cc3)cc2n1Cc1ccccc1 [Compound 23h, 1-Benzyl-2-butyl-6-(4-methylbenzyl)-1H-imidazo[4,5-c]pyridin-4-amine]",EC50,[1]; [11],1800 nM
"CCCCc1nc2c(N)nc(Cc3ccc(OC(F)(F)F)cc3)cc2n1Cc1ccccc1 [Compound 23i, 1-Benzyl-2-butyl-6-(4-(trifluoromethoxy)benzyl)-1H-imidazo[4,5-c]pyridin-4-amine]",hTLR7-agonistic Activity (EC50),[1]; [12],Inactive
"CCCCc1nc2c(N)nc(CCc3ccccc3)cc2n1Cc1ccccc1 [Compound 23j, 1-Benzyl-2-butyl-6-phenethyl-1H-imidazo[4,5-c]pyridin-4-amine]",EC50,[1]; [11],570 nM
same,TLR7-specific agonistic activity EC50,[1]; primary screen,restored
CCCCC1C(N)=Nc2ccccc21 (stereo not shown) [Compound A4],hTLR8 Agonistic Activity (EC50),[2]; human TLR 8-specific reporter gene assays,Unstable
same,TLR8-agonistic activity of the hydrochloride salt,[2]; hydrochloride salt,inactive
same,stability of the free-base,[9],exceedingly unstable
"CCCCCn1c(N)nc2c(C)cccc21 [Compound A31a, 4-Methyl-1-pentyl-1H-benzo[d]imidazol-2-amine]",EC50,"[2]; primary screens, read-out: TLR8-agonistic activity EC50",1130 nM
same,"induction of proinflammatory cytokines, IL-12p40 and IFN-γ",[10],induction
same,CD69 upregulation in natural killer (NK) lymphocytes,[4],complete absence
